# How the values were obtained:
# [1] = tested on: Fibroblast growth factor receptor 1 (Homo sapiens), P11362 [V561M]; assay: Residual activity of FGFR1 V561M mutant at 0.1 uM by microplate scintillation counting
# [2] = target: T1, Serine/threonine-protein kinase D3 (Homo sapiens) (UniProt O94806); assay: Residual activity of PKCnu at 0.1 uM by microplate scintillation counting
# T1 sequence (whole entry): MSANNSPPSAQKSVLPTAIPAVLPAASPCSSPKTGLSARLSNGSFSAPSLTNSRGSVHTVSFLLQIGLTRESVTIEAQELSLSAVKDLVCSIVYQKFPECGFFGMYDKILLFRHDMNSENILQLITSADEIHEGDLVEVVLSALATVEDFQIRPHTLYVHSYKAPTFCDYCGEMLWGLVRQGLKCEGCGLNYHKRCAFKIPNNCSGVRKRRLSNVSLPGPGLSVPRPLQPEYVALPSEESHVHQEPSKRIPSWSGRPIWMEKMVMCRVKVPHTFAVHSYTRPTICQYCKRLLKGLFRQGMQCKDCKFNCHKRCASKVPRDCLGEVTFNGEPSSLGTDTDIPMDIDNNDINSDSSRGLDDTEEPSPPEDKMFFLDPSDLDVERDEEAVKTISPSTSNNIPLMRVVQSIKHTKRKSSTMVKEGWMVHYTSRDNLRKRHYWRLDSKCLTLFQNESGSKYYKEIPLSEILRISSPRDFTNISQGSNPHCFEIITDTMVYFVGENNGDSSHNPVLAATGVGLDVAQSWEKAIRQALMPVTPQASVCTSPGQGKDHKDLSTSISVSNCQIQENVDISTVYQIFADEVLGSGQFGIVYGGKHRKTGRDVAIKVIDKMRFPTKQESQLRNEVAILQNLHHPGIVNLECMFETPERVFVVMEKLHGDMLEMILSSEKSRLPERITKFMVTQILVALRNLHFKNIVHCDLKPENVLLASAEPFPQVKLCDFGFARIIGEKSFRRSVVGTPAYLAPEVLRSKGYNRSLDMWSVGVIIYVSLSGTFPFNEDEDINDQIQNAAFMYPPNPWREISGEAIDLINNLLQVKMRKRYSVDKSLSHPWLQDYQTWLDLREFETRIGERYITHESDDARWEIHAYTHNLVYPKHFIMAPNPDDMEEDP
# [3] = target: T2, Phosphorylase b kinase gamma catalytic chain, liver/testis isoform (Homo sapiens) (UniProt P15735); assay: Residual activity of PHKG2 at 0.1 uM by microplate scintillation counting
# T2 sequence (whole entry): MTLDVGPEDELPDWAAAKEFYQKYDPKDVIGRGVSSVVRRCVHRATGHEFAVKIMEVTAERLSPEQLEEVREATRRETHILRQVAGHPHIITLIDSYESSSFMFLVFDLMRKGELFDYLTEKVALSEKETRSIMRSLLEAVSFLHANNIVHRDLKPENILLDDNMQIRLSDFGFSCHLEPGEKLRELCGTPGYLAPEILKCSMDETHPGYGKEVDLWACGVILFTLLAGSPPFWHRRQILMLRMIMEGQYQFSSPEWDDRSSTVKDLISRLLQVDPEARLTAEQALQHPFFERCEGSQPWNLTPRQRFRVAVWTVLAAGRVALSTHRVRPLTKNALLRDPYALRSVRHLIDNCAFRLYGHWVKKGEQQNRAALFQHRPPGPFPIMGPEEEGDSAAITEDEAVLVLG
# [4] = target: Receptor tyrosine-protein kinase erbB-2 (Homo sapiens, UniProt P04626); assay: Residual activity of ERBB2 at 1 uM by microplate scintillation counting
# [5] = target: Serine/threonine-protein kinase 26 (Homo sapiens) (UniProt Q9P289); assay: Residual activity of MST4 at 10 uM by microplate scintillation counting
# [6] = target: T3, Ephrin type-B receptor 2 (Homo sapiens) (UniProt P29323); assay: Residual activity of EPHB2 at 1 uM by microplate scintillation counting
# T3 sequence (whole entry): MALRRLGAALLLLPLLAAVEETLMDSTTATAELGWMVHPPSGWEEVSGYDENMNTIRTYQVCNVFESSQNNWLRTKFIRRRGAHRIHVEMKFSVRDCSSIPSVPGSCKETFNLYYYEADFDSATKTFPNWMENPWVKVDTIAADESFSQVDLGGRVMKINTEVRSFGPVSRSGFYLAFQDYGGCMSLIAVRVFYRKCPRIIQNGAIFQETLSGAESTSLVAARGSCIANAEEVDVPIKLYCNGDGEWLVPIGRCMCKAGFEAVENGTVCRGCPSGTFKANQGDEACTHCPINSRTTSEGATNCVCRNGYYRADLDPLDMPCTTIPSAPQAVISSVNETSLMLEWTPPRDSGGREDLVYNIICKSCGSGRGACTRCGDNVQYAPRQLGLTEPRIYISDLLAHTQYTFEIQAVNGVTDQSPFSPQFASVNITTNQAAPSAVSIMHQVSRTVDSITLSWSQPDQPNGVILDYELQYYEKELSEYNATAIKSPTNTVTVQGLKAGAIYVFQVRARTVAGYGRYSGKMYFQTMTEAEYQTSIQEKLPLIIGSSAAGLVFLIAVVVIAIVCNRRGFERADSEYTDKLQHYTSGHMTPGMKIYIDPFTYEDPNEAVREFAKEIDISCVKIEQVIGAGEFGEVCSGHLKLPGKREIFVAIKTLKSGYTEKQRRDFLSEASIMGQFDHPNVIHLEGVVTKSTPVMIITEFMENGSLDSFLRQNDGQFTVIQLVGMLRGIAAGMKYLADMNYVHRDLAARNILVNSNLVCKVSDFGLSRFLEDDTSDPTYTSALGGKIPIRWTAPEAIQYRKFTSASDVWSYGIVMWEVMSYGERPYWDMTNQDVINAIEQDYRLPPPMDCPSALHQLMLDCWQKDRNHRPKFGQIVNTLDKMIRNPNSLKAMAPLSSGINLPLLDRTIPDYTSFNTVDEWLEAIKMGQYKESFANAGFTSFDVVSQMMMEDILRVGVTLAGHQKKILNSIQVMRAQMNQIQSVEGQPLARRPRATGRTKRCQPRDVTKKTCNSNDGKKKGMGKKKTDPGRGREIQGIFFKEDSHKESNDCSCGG
# [7] = target: Dual specificity tyrosine-phosphorylation-regulated kinase 1A (Homo sapiens) (UniProt Q13627); assay: Residual activity of DYRK1A at 1 uM by microplate scintillation counting
# [8] = target: Protein-tyrosine kinase 2-beta (Homo sapiens) (UniProt Q14289); assay: Residual activity of PYK2 at 0.1 uM by microplate scintillation counting
# [9] = target: High affinity nerve growth factor receptor (Homo sapiens) (UniProt P04629); assay: Residual activity of TRK-A at 0.1 uM by microplate scintillation counting
# [10] = target: Serine/threonine-protein kinase PLK3 (Homo sapiens) (UniProt Q9H4B4); assay: Residual activity of PLK3 at 1 uM by microplate scintillation counting
# Angiopoietin-1 receptor = Angiopoietin-1 receptor (Homo sapiens, UniProt Q02763); assay: Residual activity of TIE2 at 10 uM by microplate scintillation counting
# [11] = target: Mast/stem cell growth factor receptor Kit (Homo sapiens) (UniProt P10721); assay: Residual activity of wild type KIT at 0.1 uM by microplate scintillation counting
# Chain of Angiopoietin-1 receptor (Q02763 whole entry): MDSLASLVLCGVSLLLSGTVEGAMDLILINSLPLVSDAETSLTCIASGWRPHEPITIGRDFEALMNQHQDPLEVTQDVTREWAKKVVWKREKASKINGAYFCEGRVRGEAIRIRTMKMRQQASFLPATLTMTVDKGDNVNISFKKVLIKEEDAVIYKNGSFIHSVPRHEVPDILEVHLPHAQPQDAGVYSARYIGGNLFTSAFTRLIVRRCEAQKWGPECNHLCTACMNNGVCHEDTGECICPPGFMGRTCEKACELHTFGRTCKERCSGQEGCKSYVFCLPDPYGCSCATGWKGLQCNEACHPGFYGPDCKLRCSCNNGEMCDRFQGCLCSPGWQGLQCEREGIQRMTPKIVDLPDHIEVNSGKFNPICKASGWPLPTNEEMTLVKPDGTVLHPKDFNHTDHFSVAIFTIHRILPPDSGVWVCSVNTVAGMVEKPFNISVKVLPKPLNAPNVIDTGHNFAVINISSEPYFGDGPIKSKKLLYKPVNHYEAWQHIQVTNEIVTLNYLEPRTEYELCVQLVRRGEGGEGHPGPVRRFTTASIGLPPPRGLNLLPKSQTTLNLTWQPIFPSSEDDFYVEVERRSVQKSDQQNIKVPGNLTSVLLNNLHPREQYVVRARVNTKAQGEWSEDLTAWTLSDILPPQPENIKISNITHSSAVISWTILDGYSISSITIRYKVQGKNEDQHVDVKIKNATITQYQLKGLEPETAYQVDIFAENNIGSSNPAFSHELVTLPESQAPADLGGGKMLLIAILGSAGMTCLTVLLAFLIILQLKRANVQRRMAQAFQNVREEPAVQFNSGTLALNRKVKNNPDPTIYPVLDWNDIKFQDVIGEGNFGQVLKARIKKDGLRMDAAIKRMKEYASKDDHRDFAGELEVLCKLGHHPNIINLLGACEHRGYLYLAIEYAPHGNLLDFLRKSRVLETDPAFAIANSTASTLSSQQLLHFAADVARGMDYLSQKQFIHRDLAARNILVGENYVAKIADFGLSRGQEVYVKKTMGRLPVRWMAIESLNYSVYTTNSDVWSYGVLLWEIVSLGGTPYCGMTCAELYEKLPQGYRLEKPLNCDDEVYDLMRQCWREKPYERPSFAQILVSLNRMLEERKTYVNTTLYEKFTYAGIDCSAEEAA
# Chain of Serine/threonine-protein kinase 26 (Homo sapiens) (Q9P289 2-416 limits assumed): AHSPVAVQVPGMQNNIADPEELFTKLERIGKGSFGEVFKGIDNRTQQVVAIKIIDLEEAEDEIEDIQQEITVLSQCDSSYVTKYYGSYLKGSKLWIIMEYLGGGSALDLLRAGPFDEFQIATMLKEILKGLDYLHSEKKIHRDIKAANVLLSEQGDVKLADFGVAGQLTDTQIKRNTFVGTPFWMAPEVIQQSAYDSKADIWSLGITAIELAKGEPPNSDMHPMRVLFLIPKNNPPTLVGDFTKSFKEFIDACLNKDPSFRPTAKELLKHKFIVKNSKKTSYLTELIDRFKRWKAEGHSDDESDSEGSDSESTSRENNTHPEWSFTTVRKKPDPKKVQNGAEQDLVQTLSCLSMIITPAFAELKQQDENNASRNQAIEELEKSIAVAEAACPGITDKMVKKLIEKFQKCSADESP
# Chain of High affinity nerve growth factor receptor (Homo sapiens) (P04629 33-796 limits assumed): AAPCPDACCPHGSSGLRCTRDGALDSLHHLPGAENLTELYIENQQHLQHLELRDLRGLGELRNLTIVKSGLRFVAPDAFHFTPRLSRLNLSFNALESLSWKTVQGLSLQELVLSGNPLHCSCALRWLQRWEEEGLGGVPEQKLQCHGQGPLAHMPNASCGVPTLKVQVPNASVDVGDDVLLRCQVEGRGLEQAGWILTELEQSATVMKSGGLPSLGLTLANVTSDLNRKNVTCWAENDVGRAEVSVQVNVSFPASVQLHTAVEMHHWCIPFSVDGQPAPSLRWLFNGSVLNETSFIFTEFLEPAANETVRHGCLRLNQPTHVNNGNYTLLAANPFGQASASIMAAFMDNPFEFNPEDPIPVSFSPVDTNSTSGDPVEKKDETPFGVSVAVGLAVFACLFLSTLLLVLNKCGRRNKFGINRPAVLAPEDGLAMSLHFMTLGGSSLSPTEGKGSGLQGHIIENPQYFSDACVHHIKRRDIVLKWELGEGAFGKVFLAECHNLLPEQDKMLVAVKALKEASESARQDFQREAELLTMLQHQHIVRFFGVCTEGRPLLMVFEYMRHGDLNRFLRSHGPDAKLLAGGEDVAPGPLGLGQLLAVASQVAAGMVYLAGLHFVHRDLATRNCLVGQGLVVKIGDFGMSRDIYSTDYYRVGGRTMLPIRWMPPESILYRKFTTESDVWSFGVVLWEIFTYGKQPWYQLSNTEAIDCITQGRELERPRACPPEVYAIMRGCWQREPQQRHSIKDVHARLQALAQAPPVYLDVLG
# Chain of Serine/threonine-protein kinase PLK3 (Homo sapiens) (Q9H4B4 whole entry, looked up): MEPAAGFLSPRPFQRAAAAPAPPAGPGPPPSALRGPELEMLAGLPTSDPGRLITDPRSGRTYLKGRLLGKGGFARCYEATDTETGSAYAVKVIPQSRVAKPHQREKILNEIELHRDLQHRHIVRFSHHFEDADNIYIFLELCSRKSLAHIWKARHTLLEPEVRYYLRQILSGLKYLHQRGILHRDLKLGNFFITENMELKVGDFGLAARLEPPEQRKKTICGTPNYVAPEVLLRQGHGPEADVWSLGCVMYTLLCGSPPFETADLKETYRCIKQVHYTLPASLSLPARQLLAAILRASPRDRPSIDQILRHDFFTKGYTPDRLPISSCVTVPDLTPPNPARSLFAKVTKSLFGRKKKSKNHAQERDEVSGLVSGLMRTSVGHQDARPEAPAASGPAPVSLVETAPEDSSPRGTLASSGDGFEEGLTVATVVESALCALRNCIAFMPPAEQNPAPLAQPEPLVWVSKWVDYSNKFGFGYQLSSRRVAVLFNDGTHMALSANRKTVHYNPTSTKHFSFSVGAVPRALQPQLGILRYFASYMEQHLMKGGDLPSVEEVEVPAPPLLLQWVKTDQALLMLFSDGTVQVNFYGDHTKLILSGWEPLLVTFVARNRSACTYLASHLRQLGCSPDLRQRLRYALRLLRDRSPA
# Chain of Receptor tyrosine-protein kinase erbB-2 (P04626 whole entry): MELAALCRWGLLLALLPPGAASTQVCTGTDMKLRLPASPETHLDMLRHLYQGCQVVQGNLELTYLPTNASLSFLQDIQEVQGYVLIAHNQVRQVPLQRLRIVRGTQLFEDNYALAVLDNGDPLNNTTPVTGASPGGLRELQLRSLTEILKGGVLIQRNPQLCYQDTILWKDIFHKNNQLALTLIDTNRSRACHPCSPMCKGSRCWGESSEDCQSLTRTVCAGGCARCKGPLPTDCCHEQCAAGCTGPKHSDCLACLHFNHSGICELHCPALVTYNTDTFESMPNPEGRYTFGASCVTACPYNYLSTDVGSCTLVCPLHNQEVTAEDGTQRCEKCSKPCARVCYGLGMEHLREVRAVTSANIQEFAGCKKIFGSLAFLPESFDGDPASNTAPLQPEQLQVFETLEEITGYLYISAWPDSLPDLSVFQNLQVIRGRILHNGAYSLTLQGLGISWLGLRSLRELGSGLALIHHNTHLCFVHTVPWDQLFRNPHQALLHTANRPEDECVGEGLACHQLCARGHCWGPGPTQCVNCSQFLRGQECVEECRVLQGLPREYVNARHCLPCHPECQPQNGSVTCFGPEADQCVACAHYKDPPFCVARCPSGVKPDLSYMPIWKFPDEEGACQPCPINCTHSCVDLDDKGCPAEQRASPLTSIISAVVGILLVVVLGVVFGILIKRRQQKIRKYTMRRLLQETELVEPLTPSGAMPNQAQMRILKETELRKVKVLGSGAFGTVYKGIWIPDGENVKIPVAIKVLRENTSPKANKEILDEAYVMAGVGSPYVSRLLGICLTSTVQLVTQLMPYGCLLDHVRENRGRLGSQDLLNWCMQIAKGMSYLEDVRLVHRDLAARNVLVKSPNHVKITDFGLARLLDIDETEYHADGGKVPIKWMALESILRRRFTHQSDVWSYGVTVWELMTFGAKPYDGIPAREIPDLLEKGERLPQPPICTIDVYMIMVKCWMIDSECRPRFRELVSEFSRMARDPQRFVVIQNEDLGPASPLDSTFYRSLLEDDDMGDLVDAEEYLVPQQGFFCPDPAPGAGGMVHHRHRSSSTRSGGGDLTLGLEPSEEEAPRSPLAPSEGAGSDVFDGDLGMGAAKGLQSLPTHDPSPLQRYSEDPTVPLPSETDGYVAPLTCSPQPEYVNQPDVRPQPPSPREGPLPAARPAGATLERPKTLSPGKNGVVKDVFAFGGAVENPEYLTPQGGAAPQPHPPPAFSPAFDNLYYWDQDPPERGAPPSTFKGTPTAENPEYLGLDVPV
# Chain of Fibroblast growth factor receptor 1 (Homo sapiens), P11362 [V561M] (P11362 whole entry V561M): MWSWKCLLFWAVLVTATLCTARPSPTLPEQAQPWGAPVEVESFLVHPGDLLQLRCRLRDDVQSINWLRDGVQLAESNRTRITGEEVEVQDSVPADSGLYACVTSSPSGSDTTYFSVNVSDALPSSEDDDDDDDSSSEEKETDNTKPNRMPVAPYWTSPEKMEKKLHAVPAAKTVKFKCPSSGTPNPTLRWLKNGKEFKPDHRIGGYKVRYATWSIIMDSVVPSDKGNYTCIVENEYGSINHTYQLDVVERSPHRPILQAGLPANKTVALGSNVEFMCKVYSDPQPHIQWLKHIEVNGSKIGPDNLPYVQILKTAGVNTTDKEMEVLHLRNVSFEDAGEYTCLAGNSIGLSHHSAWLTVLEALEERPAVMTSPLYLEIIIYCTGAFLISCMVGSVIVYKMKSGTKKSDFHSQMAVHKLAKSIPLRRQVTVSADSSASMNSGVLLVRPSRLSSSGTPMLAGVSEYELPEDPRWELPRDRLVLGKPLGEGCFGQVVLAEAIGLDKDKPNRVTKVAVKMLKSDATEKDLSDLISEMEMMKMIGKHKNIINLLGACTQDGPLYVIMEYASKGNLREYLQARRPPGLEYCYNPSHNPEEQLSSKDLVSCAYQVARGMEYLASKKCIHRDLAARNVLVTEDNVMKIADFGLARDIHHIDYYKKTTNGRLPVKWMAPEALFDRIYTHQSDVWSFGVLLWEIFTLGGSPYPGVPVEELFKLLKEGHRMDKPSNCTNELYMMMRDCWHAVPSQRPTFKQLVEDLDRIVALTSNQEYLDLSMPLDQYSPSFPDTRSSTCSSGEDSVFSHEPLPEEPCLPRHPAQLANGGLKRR
residual activity [1],residual activity [2],residual activity [3],residual activity [4],residual activity [5],residual activity [6],residual activity [7],residual activity [8],residual activity [9],residual activity [10],residual activity (Angiopoietin-1 receptor),residual activity [11],SMILES
108%,93%,83%,128%,85%,98%,92%,103%,83%,101%,4%,101%,COc1cc2c(Oc3ccc(-c4nc5ccccc5s4)cc3)ncnc2cc1OCCCN1CCCC1
109%,86%,86%,98%,88%,86%,93%,102%,104%,100%,3%,96%,COc1cc2c(Oc3ccc(-c4nc5ccccc5s4)cc3)ncnc2cc1OCCCN1CCN(C)CC1
93%,102%,53%,99%,76%,72%,91%,98%,88%,94%,4%,96%,COc1cc2c(Oc3ccc(-c4nc5ccccc5s4)cc3F)ncnc2cc1OCCCN1CCN(C)CC1

# — ChEMBL document CHEMBL1152560, “Substituted 2-arylbenzothiazoles as kinase inhibitors: hit-to-lead optimization” (Bioorg Med Chem, 2009)
